Data reported in patent US20100093642A1, “NOVEL POLYPEPTIDES” (priority 2006, published 2010).
No end group written: not given here.

What was measured:
[1] = tested on: E. coli (ATCC 25922); format: cell-based, Escherichia coli
Description: (§1) The antibacterial activities of the different peptides were determined by continuous monitoring of bacterial growth with a Bioscreen C microbiology reader (Labsystems Oy, Helsinki, Finland). The test was performed in 100-well flat-bottomed honeycomb plates, in which 50 μl of test fractions were incubated with 50 μl of a suspension of an actively growing culture of bacteria diluted in Mueller Hinton medium to a starting concentration of 3×10^4 cells per ml. […] [NT] 13032) and S. aureus (ATCC 9144), were chosen as test bacteria. […] Polymyxin B (Sigma, St.

[2] = tested on: Listonella (Vibrio) anguillarum, serotype O2 (FT 1801); format: cell-based
Description: as §1

[3] = tested on: Pseudomonas aeruginosa; format: cell-based
Description: as §1

[4] = tested on: C. glutamicum (ATCC 13032); format: cell-based, Corynebacterium glutamicum
Description: as §1

[5] = tested on: S. aureus (ATCC 9144); format: cell-based, Staphylococcus aureus; details: ATCC 9144
Description: as §1

[6] = tested on: Botrytis cinerea 101; details: 48 h
Description: (§2) The various derivates of P17 (brominated and non-brominated) were tested for their ability to inhibit fungal growth of the yeast strains Saccaharomyces cerevisiae sp, Candida albicans (ATCC 10231) and Rodotorula sp., and the filamentous strains Botrytis cinerea 101, Penicillium rogveforti, and Fusarium sp. All strains, except C. albicans, were a gift from Prof. A. Tronsmo (The Norwegian University of Life Sciences, Ås, Norway). The fungi were cultivated on potato dextrose agar, supplemented with 2% glucose, at room temperature. Before antifungal testing, the fungi were dissolved in potato dextrose broth (Difco) at half-strength. Cell concentration was determined and adjusted after counting in a Bürker chamber. The filamentous fungi were filtered through a piece of cotton before counting. An aliquot of 50 μl of fungal spores (final concentration 2×10^5 spores per ml) were inoculated in microtiter plates (96 wells) along with 50 μl peptide solution. Peptides, dissolved in distilled water, were tested at final concentrations (two-fold dilutions) ranging from 50 μM to 0.1 μM. Cultures were grown in the dark (without shaking) and with a moist chamber at 25° C. (37° C. for C. albicans). Growth inhibition was determined microscopically after 48 h of incubation. MIC was determined as the lowest concentration of peptide resulting in 50% inhibition of visible growth.

[7] = tested on: Candida albicans (ATCC 10231); details: ATCC 10231, 48 h
Description: as §2

[8] = tested on: Saccharomyces cerevisiae; details: 48 h
Description: as §2

[9] = tested on: Penicillum rogveforti; test: Antifungal MIC; format: cell-based; details: filamentous fungi; more than 50% inhibition of visible growth, 48 h
Description: as §2

[10] = tested on: L. anguillarum; format: cell-based, Listonella (Vibrio) anguillarum
Description: (§3) The Gram-negative bacteria Listonella (Vibrio) anguillarum, serotype O2 (FT 1801, also coded as AL 104/LFI 6004), originally isolated from Atlantic salmon by staff of the Norwegian Veterinary Institute (Oslo, Norway), Escherichia con (ATCC 25922), and the Gram-positive bacteria Staphylococcus aureus (ATCC 9144) and Corynebacterium glutamicum (ATCC 13032) were used as test organisms. All isolates were grown at room temperature in Mueller Hinton Broth (MBB; Difco Laboratories, Detroit, U.S.A).
(§4) The antibacterial activities of the obtained HPLC fractions were determined by continuous monitoring of bacterial growth with a Bioscreen C microbiology reader (Labsystems Oy, Helsinki, Finland). The test was performed in 100-well flat-bottomed honeycomb plates, in which […] of test fractions were incubated with 50 μl of a suspension of an actively growing culture of bacteria diluted to a starting concentration of 5×10^3 cells per well. The growth chamber was maintained at 20° C. during the incubation period. The absorbance was measured at 2 h intervals for 48 h by a turbidometric method with vertical light photometry and a wide band filter (420-580 nm), which is more insensitive to colour change in the sample compared to single wavelength detection. Cecropin P1(0.5 μg/ml) was used as a positive control during these experiments. Antibacterial activity was determined when the optical density (OD) of the growth control (bacteria plus water) reached an absorbance of approximately 0.3. Fractions were regarded as active when the OD was less than 50% of the growth control.
(§5) The polypeptides of the present invention were isolated and subsequently tested for activity. A serial dilution method was employed to examine the antibacterial activity of the peptides. Two Gram-negative bacteria, L. anguillarum and E. coli, and two Gram-positive bacteria, C. glutamicum and S. aureus, were chosen as test bacteria. The polypeptides of the present invention were active against both Gram-positive and Gram-negative bacteria (table 4).

[11] = tested on: E. coli; format: cell-based, Escherichia coli
Description: as §3, §4, §5

[12] = tested on: C. glutamicum; format: cell-based, Corynebacterium glutamicum
Description: as §3, §4, §5

[13] = tested on: S. aureus; format: cell-based, Staphylococcus aureus
Description: as §3, §4, §5

[14] = tested on: E. coli K-12; test: Bacterial cell viability, lux luminescence and OD600, with or without LPS; format: cell-based, Escherichia coli; details: co-incubation with 2.5 μM Aeromonas salmonicida LPS
From the text: (§6) To evaluate the effect of antimicrobial peptides on the viability of bacteria in a fast and reliable manner we used the lux CDABE operon from Photorhabdus luminescens as a reporter system in gram negative test bacteria and the modified luxABCDE operon in S. aureus (Vesterlund et al. 2004). Bacterial bioluminescence is directly dependent on metabolic activity, since reduction equivalents are needed to drive light emission. Any form of interruption of bacterial cell integrity or metabolism will therefore be detected as a reduction in light emission.
(§7) For the assay we used S. aureus (RN4220), E. coli K-12 and Salmonella enterica serovar typhimurium (ATCC 14028) transformed with the respective lux-operon containing plasmids (Vesterlund et al. 2004).
(§8) For each experiment a fresh colony was picked from Luria-Bertani plates supplemented with 10 μg/ml of erythromycin in case of S. aureus and with 100 μg/ml of ampicillin in case of E. coli and S. enterica serovar Typhimurium. Each colony was suspended in 5 ml of Müller-Hinton medium with appropriate antibiotics. The culture was incubated over night at 37° C. in a shaking incubator. The next morning 0.5 ml of this culture was transferred to 30 ml fresh MH medium in an Erlenmeyer-flask supplemented with the respective antibiotic. The flask was incubated (200 rpm shaking; 37° C.) until an OD600 of 0.5-0.8 was reached. The culture was then diluted to an OD600 of about 0.02-0.03 before transfer to the 96 well opaque plates with optical bottom (Packard ViewPlate) used for the assay.
The synthesized peptides were dissolved in water and aliquots frozen at −18° C. until use. Twofold dilutions of test peptides (final concentrations ranging from 0.31 to 80 μM) were directly prepared in 96 well microtiter plates in a volume of 10 μl in water. 90 μl is of indicator bacteria in MH medium were added directly to the prepared and pre-warmed (30 minutes at 37° C.) plate before starting the measurement in a Victor multiplate reader (Perkin Elmer) at 37° C. Both OD600 and luminescence in counts per second (cps) were followed over 5 hours in measuring intervals of 5 minutes. The plates where shaken before each measurement (20 sec.; 5 mm orbital shaking; 10 sec waiting). The growth curves and light emission curves were drawn and evaluated to determine the MIC for each indicator strain. The MIC was defined as the concentration of test compound causing more than 50% reduction in bioluminescence (cps) or optical density (OD600) after 5 hours, compared to the growth control. Cecropin P1 was used as positive control. […]
A second plate with an otherwise similar setup (as described for the luminescence assay in example 3) was prepared, but with addition of Aeromonas salmonicida LPS to the peptide dilutions before pre-warming. […]

[15] = tested on: Salmonella enterica serovar typhimurium (ATCC 14028); test: as above; format: cell-based; details: co-incubation with 2.5 μM Aeromonas salmonicida LPS
From the text: as §6, §7, §8
The synthesized peptides were dissolved in water and aliquots frozen at −18° C. until use. Twofold dilutions of test peptides (final concentrations ranging from 0.31 to 80 μM) were directly prepared in 96 well microtiter plates in a volume of 10 μl in water. 90 μl is of indicator bacteria in MH medium were added directly to the prepared and pre-warmed (30 minutes at 37° C.) plate before starting the measurement in a Victor multiplate reader (Perkin Elmer) at 37° C. Both OD600 and luminescence in counts per second (cps) were followed over 5 hours in measuring intervals of 5 minutes. The plates where shaken before each measurement (20 sec.; 5 mm orbital shaking; 10 sec waiting). The growth curves and light emission curves were drawn and evaluated to determine the MIC for each indicator strain. The MIC was defined as the concentration of test compound causing more than 50% reduction in bioluminescence (cps) or optical density (OD600) after 5 hours, compared to the growth control. Cecropin P1 was used as positive control. The results (table 14a-b) confirm the results obtained in example 2, showing a pronounced antibacterial effect of the longest peptide fragments. […] The partial peptides P17 HC (1-20), both bromated and unbromated, inhibit growth only in higher concentrations.
A second plate with an otherwise similar setup (as described for the luminescence assay in example 3) was prepared, but with addition of Aeromonas salmonicida LPS to the peptide dilutions before pre-warming. The LPS end concentration in each well was approximately 2.5 μM.

Row | Sequence | Minimal inhibitory concentration, E. coli [1] [µM] | Minimal inhibitory concentration, L. anguillarum [2] [µM] | Minimal inhibitory concentration, P. aeruginosa [3] [µM] | Minimal inhibitory concentration, C. glutamicum [4] [µM] | Minimal inhibitory concentration, S. aureus [5] [µM] | Minimal inhibitory concentration (MIC), Botrytis cinerea [6] [µM] | Minimal inhibitory concentration (MIC), Candida albicans [7] [µM] | Minimal inhibitory concentration (MIC), Saccharomyces cerevisiae [8] [µM] | Minimal inhibitory concentration (MIC), Penicillum rogveforti [9] [µM] | Minimal inhibitory concentration (MIC), L. anguillarum [10] [µM] | Minimal inhibitory concentration (MIC), E. coli [11] [µM] | Minimal inhibitory concentration (MIC), C. glutamicum [12] [µM] | Minimal inhibitory concentration (MIC), S. aureus [13] [µM] | MIC, more than 50% reduction in optical density, E. coli, P + LPS ([14]; OD600, 5 hours) [µM] | MIC, more than 50% reduction in luminescence, E. coli, P + LPS ([14]; luminescence (cps), 5 hours) [µM] | MIC, more than 50% reduction in optical density, S. enterica, P + LPS ([15]; OD600, 5 hours) [µM] | MIC, more than 50% reduction in luminescence, S. enterica, P + LPS ([15]; luminescence (cps), 5 hours) [µM]
1 | DLRGACAAAHAL [P17 LC] | >100 | >100 | >100 | >100 | >100 | >100 | >100 | >100 | >100 |  |  |  |  |  |  |  | 
2 | SWLSKTAKKLENSAKKRISEGIAIAIQGGPR [Cecropin P1, reference compound] |  |  |  |  |  |  |  |  |  | 1.2 | 1.2 | 1.6 | 12.5 | 20 | 20 | 10 | 10
